From patent US20140120083A1, “TREATMENT OF CANCERS USING PI3 KINASE ISOFORM MODULATORS” (INFINITY PHARMACEUTICALS, INC., priority 2012, published 2014) come the findings set out here.

Holding throughout (type): biochemical
For one assay, the target named is T1, PI3K γ (Homo sapiens, UniProt P48736).
T1 construct: purchased Sigma
The assay can be described thus: In vitro IC50, PI3K γ. From the text: (§1) An exemplary system is PI 3-Kinase (human) HTRF™ Assay from Upstate.

Another assay addresses T2, PI3K α (Homo sapiens, UniProt P42336).
T2 construct: purchased Upstate
The assay can be described thus: In vitro IC50, PI3K α.
Source text: as §1

For the next assay, the target named is PI3K β (Homo sapiens, UniProt P42338). The assay can be described thus: In vitro IC50, PI3K β.
Source text: as §1

Another assay deals with PI3K δ (Homo sapiens, UniProt O00329). Briefly: In vitro IC50, PI3K δ. The arrangement: purchased Upstate.
Source text: as §1

pIC50: −log10 of the molar value. Several values for one entry are separate records, joined by “and”; a condition that tells them apart may be missing. Identical values can stand only once.

T1 sequence (P48736 whole entry): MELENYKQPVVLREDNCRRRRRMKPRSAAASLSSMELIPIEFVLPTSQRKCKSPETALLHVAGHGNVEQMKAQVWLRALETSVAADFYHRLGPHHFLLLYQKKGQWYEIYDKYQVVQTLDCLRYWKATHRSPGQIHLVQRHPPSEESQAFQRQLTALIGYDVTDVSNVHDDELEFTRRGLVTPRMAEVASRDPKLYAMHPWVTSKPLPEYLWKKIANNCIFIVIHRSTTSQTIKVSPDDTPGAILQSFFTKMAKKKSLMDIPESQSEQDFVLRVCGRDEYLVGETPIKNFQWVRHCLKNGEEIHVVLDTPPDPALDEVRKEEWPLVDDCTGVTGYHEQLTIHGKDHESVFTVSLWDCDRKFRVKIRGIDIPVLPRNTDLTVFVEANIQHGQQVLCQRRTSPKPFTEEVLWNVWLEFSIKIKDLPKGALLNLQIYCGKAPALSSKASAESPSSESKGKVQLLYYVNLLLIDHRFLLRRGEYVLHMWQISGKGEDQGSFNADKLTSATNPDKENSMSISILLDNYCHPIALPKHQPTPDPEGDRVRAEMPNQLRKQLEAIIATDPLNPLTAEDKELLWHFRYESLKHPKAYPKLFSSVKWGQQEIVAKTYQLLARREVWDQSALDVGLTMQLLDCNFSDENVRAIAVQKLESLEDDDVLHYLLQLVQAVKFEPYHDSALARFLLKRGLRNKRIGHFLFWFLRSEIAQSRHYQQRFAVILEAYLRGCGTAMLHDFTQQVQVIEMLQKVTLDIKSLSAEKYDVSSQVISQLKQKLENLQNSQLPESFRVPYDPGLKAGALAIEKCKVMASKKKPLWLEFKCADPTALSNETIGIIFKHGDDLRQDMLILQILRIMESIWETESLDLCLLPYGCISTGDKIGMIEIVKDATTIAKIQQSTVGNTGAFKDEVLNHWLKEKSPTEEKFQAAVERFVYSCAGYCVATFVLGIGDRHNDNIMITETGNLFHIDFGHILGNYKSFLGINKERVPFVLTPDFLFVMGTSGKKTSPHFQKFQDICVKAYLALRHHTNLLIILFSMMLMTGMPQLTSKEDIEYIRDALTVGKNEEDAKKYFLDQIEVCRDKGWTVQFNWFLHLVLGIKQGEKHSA
Sequence of PI3K δ (O00329 whole entry): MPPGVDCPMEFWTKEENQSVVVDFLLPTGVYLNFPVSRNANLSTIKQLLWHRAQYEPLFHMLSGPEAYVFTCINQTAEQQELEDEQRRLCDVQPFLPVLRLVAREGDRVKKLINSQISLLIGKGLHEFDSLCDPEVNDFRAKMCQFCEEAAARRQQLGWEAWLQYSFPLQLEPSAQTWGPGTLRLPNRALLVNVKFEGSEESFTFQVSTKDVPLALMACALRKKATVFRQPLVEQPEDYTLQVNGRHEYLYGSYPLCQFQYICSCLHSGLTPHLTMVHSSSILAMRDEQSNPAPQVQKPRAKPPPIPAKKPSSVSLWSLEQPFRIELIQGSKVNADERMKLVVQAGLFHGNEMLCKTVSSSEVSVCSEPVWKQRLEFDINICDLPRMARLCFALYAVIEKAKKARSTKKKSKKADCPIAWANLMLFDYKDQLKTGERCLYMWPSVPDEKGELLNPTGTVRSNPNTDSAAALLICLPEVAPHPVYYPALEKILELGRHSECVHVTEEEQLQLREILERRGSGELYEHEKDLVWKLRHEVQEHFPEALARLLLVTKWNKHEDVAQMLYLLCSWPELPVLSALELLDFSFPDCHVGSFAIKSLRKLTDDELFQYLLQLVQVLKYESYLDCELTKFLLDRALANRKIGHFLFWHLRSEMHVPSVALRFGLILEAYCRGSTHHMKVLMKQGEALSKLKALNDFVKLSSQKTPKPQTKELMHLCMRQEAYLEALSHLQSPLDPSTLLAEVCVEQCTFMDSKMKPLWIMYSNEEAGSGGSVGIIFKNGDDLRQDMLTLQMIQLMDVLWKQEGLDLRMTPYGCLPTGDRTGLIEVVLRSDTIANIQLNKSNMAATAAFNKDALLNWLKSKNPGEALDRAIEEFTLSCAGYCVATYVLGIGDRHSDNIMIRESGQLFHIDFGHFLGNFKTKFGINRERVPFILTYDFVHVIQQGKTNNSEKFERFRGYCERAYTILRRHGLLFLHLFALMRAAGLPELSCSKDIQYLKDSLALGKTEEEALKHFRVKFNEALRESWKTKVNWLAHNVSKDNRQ
Sequence of PI3K δ (P27986 whole entry partner): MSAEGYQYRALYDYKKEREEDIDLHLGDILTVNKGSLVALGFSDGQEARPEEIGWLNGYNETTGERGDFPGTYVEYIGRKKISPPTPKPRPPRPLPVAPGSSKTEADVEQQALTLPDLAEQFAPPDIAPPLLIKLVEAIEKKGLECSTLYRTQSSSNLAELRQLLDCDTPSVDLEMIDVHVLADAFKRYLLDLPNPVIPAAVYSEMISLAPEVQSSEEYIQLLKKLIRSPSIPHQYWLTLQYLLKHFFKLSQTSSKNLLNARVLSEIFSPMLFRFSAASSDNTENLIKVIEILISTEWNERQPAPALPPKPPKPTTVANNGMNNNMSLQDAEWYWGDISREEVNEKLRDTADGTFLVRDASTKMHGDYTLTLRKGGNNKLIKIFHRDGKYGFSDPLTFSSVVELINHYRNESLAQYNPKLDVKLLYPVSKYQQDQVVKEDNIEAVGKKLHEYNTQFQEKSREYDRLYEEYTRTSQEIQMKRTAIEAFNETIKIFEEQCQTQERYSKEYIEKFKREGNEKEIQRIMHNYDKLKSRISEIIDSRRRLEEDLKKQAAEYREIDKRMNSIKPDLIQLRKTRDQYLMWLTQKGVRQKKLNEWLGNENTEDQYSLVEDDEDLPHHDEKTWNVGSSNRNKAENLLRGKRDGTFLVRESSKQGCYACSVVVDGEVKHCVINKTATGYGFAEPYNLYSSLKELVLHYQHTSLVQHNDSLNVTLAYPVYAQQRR
Sequence of PI3K β (P42338 whole entry): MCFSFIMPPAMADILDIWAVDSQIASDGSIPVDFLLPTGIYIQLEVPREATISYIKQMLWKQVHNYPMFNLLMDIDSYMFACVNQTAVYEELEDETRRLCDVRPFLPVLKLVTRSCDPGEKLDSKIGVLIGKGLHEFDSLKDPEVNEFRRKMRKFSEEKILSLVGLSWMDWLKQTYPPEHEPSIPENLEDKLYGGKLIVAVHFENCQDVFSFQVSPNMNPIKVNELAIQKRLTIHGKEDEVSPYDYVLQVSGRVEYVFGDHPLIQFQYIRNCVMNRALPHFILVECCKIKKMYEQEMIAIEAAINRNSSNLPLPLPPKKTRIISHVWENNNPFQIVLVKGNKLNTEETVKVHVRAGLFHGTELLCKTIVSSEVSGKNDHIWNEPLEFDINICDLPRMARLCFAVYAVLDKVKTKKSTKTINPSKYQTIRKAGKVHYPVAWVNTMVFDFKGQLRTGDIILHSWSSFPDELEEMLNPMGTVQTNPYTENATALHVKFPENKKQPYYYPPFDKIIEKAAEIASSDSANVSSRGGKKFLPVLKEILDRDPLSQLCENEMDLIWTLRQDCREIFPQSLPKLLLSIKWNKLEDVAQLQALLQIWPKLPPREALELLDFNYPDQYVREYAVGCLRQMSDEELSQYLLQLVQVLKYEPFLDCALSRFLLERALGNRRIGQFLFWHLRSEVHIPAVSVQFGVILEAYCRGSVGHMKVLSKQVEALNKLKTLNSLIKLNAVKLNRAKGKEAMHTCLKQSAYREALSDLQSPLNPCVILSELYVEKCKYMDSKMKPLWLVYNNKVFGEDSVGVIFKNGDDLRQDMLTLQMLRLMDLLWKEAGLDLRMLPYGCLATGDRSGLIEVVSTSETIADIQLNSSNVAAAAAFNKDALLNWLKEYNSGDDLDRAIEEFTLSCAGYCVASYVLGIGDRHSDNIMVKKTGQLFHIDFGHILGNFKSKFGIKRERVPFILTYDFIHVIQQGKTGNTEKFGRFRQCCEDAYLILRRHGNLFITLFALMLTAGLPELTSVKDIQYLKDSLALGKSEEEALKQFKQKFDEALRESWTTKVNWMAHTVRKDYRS
T2 sequence (P42336 whole entry): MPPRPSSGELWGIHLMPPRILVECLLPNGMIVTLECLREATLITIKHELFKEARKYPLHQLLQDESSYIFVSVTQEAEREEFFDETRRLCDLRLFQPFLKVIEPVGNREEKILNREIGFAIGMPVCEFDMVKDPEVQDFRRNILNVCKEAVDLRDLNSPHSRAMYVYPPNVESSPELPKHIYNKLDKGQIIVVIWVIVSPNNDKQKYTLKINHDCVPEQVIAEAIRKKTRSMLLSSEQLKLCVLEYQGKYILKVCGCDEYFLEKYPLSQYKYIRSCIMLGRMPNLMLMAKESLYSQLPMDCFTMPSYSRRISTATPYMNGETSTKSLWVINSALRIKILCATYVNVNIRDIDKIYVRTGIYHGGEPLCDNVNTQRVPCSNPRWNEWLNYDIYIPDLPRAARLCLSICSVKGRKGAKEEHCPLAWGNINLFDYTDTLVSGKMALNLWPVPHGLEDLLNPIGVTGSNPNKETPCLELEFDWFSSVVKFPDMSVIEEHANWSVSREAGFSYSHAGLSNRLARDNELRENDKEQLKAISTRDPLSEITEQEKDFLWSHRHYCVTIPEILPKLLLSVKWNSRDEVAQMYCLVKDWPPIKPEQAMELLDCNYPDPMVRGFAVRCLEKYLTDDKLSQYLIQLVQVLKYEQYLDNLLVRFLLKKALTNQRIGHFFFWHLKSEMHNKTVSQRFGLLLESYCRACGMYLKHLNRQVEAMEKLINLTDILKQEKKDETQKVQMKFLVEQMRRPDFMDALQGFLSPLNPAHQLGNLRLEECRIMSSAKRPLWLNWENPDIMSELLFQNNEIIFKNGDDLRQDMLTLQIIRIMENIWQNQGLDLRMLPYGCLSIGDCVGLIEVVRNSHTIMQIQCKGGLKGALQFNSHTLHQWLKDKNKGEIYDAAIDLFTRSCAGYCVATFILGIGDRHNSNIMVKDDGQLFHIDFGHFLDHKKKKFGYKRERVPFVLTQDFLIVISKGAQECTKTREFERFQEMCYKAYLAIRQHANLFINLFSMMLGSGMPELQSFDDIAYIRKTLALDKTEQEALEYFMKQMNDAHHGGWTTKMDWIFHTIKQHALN
T2 sequence (P27986 whole entry partner): as the sequence (P27986 whole entry partner) above

Consider `CC(=O)Nc1nc2ccc(-c3nn(Cc4cc5cccc(C)c5c(=O)n4-c4ccccc4C)c4ncnc(N)c34)cc2s1` [Compound 53], for which the pIC50 was > 7.00 against PI3K γ, > 6.00 on PI3K α and > 5.00 against PI3K β.

As to `Cc1ccccc1-n1c(Cn2nc(-c3ccc(O)c(Cl)c3)c3c(N)ncnc32)cc2cccc(C)c2c1=O` [Compound 25], the pIC50 is > 7.00 against PI3K γ, < 5.00 against PI3K α, > 5.00 on PI3K β and > 7.00 against PI3K δ.

With `COc1cc(-c2nn(Cc3cc4cccc(C)c4c(=O)n3-c3ccccc3C)c3ncnc(N)c23)ccc1Cl` [Compound 21], the pIC50 on PI3K γ is > 7.00; against PI3K α it was < 5.00; on PI3K β, < 5.00; against PI3K δ, > 6.00.

With `CCc1ccccc1-n1c(Cn2nc(-c3cccc(O)c3)c3c(N)ncnc32)cc2cccc(C)c2c1=O` [Compound 88], the pIC50 against PI3K γ is > 7.00; at PI3K α, < 5.00; at PI3K β, < 5.00; on PI3K δ it was > 7.00.

With `Cc1cccc2cc(Cn3nc(/C=C4/SC(=O)NC4=O)c4c(N)ncnc43)n(-c3ccccc3F)c(=O)c12` [Compound 171], the negative logarithm of the IC50 (pIC50) at PI3K γ was > 7.00; against PI3K α, > 5.00; against PI3K β it was > 5.00; against PI3K δ, > 7.00.

For the compound `COc1ccccc1-n1c(Cn2nc(-c3cccc(O)c3)c3c(N)ncnc32)cc2cccc(C)c2c1=O` [Compound 74], the pIC50 at PI3K γ is > 7.00; against PI3K α, < 5.00; against PI3K β, > 5.00; against PI3K δ, > 7.00.

As for `Cc1cccc2cc(Cn3nc(-c4cccc(O)c4)c4c(N)ncnc43)n(-c3ccccc3)c(=O)c12` [Compound 146], the pIC50 is > 7.00 against PI3K γ, < 5.00 against PI3K α, < 5.00 against PI3K β and > 7.00 against PI3K δ.

For `COc1cccc(-c2nn(Cc3cc4cccc(C)c4c(=O)n3-c3ccccc3C)c3ncnc(N)c23)c1` [Compound 106], the pIC50 was > 6.00 on PI3K γ, < 5.00 on PI3K α, > 5.00 against PI3K β and > 6.00 against PI3K δ.

Consider `CCc1nn(Cc2cc3cccc(C)c3c(=O)n2-c2ccccc2C)c2ncnc(N)c12` [Compound 294], for which the pIC50 was > 5.00 on PI3K γ, < 5.00 at PI3K α, < 5.00 against PI3K β and > 7.00 against PI3K δ.

In the case of `Cc1cccc2cc(Cn3nc(C#N)c4c(N)ncnc43)n(-c3ccccc3F)c(=O)c12` [Compound 169], the pIC50 against PI3K γ was < 5.00; on PI3K α it was < 5.00; at PI3K β it was < 5.00; against PI3K δ it was > 7.00.

For the compound `Cc1cccc2cc(Cn3nc(-c4cnn(C)c4)c4c(N)ncnc43)n(-c3ccccc3F)c(=O)c12` [Compound 164], the pIC50 against PI3K γ was > 5.00; against PI3K α, < 5.00; on PI3K β it was < 5.00; at PI3K δ, > 5.00.

Consider `COc1cc(F)cc(-c2nn(Cc3cc4cccc(C)c4c(=O)n3-c3ccccc3C)c3ncnc(N)c23)c1` [Compound 181], for which the pIC50 against PI3K γ is > 5.00; against PI3K α, < 5.00; against PI3K β, < 5.00; at PI3K δ it was > 6.00.

As for `Cc1cccc2cc(Cn3nc(-c4cn[nH]c4)c4c(N)ncnc43)n(-c3ccccc3)c(=O)c12` [Compound 206], the pIC50 against PI3K γ was > 6.00; against PI3K α, > 5.00; against PI3K β, > 5.00; at PI3K δ it was > 7.00.

On to `Cc1cccc2cc(Cn3nc(C(F)F)c4c(N)ncnc43)n(-c3ccccc3)c(=O)c12` [Compound 308], for which the pIC50 was > 6.00 at PI3K γ, < 5.00 at PI3K α, > 5.00 against PI3K β and > 7.00 against PI3K δ.

On to `Cc1cccc2cc(Cn3nc(-c4ccc5oc(N)nc5c4)c4c(N)ncnc43)n(-c3ccccc3)c(=O)c12` [Compound 205], for which the negative-log IC50 (pIC50) against PI3K γ was > 7.00; at PI3K α, > 5.00; against PI3K β, > 5.00; against PI3K δ, > 7.00.

As to `CC(=O)Nc1nc2ccc(-c3nn(Cc4cc5cccc(C)c5c(=O)n4-c4cccc(F)c4)c4ncnc(N)c34)cc2s1` [Compound 178], the figures for the pIC50 on PI3K γ, on PI3K β and against PI3K δ were > 7.00, > 5.00 and > 7.00, respectively.

As for `CC(=O)Nc1nc2ccc(-c3nn(Cc4cc5cccc(C)c5c(=O)n4C4CC4)c4ncnc(N)c34)cc2s1` [Compound 155], the pIC50 at PI3K α, at PI3K β and on PI3K δ was > 7.00 in each case.

`Cc1ccccc1-n1c(Cn2nc(-c3cccc(O)c3)c3c(N)ncnc32)cc2cccc(C)c2c1=O` [Compound 13]: the negative-log IC50 (pIC50) on PI3K γ is > 7.00; against PI3K α, < 5.00; against PI3K β it was > 5.00.

In the case of `Cc1cccc2cc(Cn3nc(CF)c4c(N)ncnc43)n(-c3ccccc3)c(=O)c12` [Compound 311], the negative-log IC50 (pIC50) against PI3K γ is > 7.00; at PI3K β, < 5.00; against PI3K δ it was > 7.00.

As to `Cc1cccc2cc(Cn3nc(-c4cccc(Cl)c4)c4c(N)ncnc43)n(-c3ccccc3F)c(=O)c12` [Compound 38], the negative logarithm of the IC50 (pIC50) against PI3K γ is < 5.00 and > 5.00; against PI3K β, < 5.00; against PI3K δ, > 5.00.

As to `CC(=O)Nc1nc2ccc(-c3nn(Cc4cc5cccc(F)c5c(=O)n4C(C)C)c4ncnc(N)c34)cc2s1` [Compound 158], the pIC50 on PI3K α was > 7.00; against PI3K β it was > 5.00; at PI3K δ, > 7.00.

`Cc1cccc2cc(Cn3nc(-c4cc(O)cc(F)c4)c4c(N)ncnc43)n(C3CCCCC3)c(=O)c12` [Compound 110]: the pIC50 was < 5.00 at PI3K α, > 5.00 against PI3K β and > 7.00 against PI3K δ.

In the case of `Cc1cccc2cc([C@H](C)Nc3ncnc4[nH]cnc34)n(C3CC3)c(=O)c12` [Compound 200], the pIC50 against PI3K γ, at PI3K β and against PI3K δ was > 7.00 throughout.

Take `Cc1cccc2cc(Cn3nc(-c4cccc(O)c4)c4c(N)ncnc43)n(C3CCC3)c(=O)c12` [Compound 114]: the pIC50 on PI3K α was < 5.00; on PI3K β it was > 5.00; against PI3K δ it was > 7.00.

For `CC(=O)Nc1nc2ccc(-c3nn(Cc4cc5cccc(C)c5c(=O)n4-c4ccccc4)c4ncnc(N)c34)cc2[nH]1` [Compound 304], the values for the pIC50 against PI3K γ, against PI3K α and on PI3K β were > 7.00, < 5.00 and < 5.00, respectively.

In the case of `Cc1cccc2cc(Cn3nc(I)c4c(N)ncnc43)n(-c3ccccc3C(C)C)c(=O)c12` [Compound 75], the pIC50 against PI3K γ is > 7.00; against PI3K β, > 5.00; against PI3K δ, > 7.00.

For the compound `Cc1ccccc1-n1c(Cn2nc(-c3cnn(CCO)c3)c3c(N)ncnc32)cc2cccc(C)c2c1=O` [Compound 163], the pIC50 at PI3K γ was > 6.00; at PI3K α, < 5.00; against PI3K β, < 5.00.

With `CC(=O)Nc1nc2ccc(-c3nn(Cc4cc5cccc(C)c5c(=O)n4C(C)C)c4ncnc(N)c34)cc2s1` [Compound 154], the negative-log IC50 (pIC50) was > 7.00 against PI3K α, > 5.00 on PI3K β and > 7.00 on PI3K δ.

Consider `CC(=O)Nc1nc2ccc(-c3nn(Cc4cc5cccc(Cl)c5c(=O)n4C4CC4)c4ncnc(N)c34)cc2s1` [Compound 156], for which the pIC50 against PI3K α, on PI3K β and against PI3K δ was > 7.00 throughout.

For `Cc1ccccc1-n1c(Cn2nc(CF)c3c(N)ncnc32)cc2cccc(C)c2c1=O` [Compound 310], the pIC50 is > 7.00 against PI3K γ, < 5.00 on PI3K β and > 7.00 against PI3K δ.

Regarding `Cc1cccc2cc(Cn3nc(C#C[C@@H](C)O)c4c(N)ncnc43)n(C3CCCCC3)c(=O)c12` [Compound 112], the negative-log IC50 (pIC50) is < 5.00 against PI3K α, < 5.00 on PI3K β and > 7.00 against PI3K δ.

With `Cc1cccc2cc(Cn3nc(I)c4c(N)ncnc43)n(-c3ccccc3Cl)c(=O)c12` [Compound 76], the figures for the pIC50 at PI3K γ, at PI3K β and against PI3K δ were > 6.00, < 5.00 and > 7.00, respectively.

Turning to `Cc1ccccc1-n1c(Cn2nc(-c3cc(O)cc(F)c3)c3c(N)ncnc32)cc2cccc(C)c2c1=O` [Compound 7], the pIC50 was > 5.00 at PI3K α and > 6.00 on PI3K β.

On to `CC(=O)Nc1nc2ccc(-c3nn(Cc4cc5cccc(C)c5c(=O)n4C4CCC4)c4ncnc(N)c34)cc2s1` [Compound 159], for which the figures for the pIC50 against PI3K α, on PI3K β and against PI3K δ were > 7.00, > 6.00 and > 7.00, respectively.

For `Cc1cccc2cc(Cn3nc(-c4cccc(O)c4)c4c(N)ncnc43)n(C3CCCCC3)c(=O)c12` [Compound 111], the pIC50 on PI3K α was < 5.00; against PI3K β, > 5.00; against PI3K δ, > 7.00.

For `CCc1ccccc1-n1c(Cn2nc(I)c3c(N)ncnc32)cc2cccc(C)c2c1=O` [Compound 77], the pIC50 on PI3K γ was > 7.00; against PI3K β it was > 5.00; against PI3K δ, > 7.00.

For the compound `Cc1ccccc1-n1c(Cn2nc(C#C[C@H](C)O)c3c(N)ncnc32)cc2cccc(C)c2c1=O` [Compound 85], the results for the pIC50 against PI3K α, against PI3K β and on PI3K δ were < 5.00, > 5.00 and > 6.00, respectively.

With `CC(=O)Nc1nc2ccc(-c3nn(Cc4cc5cccc(C)c5c(=O)n4C)c4ncnc(N)c34)cc2s1` [Compound 153], the pIC50 against PI3K α is > 7.00; on PI3K β, > 6.00; at PI3K δ, > 7.00.

For the compound `CC(=O)Nc1nc2ccc(-c3nn(Cc4cc5cccc(Cl)c5c(=O)n4C(C)C)c4ncnc(N)c34)cc2s1` [Compound 157], the negative logarithm of the IC50 (pIC50) against PI3K α, against PI3K β and at PI3K δ was > 7.00 in each case.

In the case of `Cc1cccc2cc(Cn3nc(-c4cc(O)cc(F)c4)c4c(N)ncnc43)n(C3CCC3)c(=O)c12` [Compound 115], the pIC50 is > 5.00 against PI3K α, > 5.00 against PI3K β and > 7.00 against PI3K δ.

As for `Cc1ccccc1-n1c(CN(C)c2ncnc3[nH]cnc23)cc2cccc(C)c2c1=O` [Compound 184], the pIC50 on PI3K γ was > 5.00; against PI3K α, < 5.00; against PI3K β it was < 5.00.

For orientation: pIC50 means the negative decadic logarithm of the IC50, by convention in mol/L.
